Source: PubChem BioAssay (NCI)
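Cells were grown in 96-well plates and exposed to each compound for 48 hours at five concentrations; endpoints were interpolated linearly between bracketing concentrations, or set to the highest concentration if not reached. TGI denotes the concentration required for complete inhibition of growth.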

Key:
Assay in all cases: DTP human tumour cell line panel, 48 h
786-0 renal = tested on: 786-0 renal
A498 renal = tested on: A498 renal
A549 NSCLC = tested on: A549 NSCLC
ACHN renal = tested on: ACHN renal
BT-549 breast = tested on: BT-549 breast
CAKI-1 renal = tested on: CAKI-1 renal
CCRF-CEM leukemia = tested on: CCRF-CEM leukemia
COLO 205 colon = tested on: COLO 205 colon
DU-145 prostate = tested on: DU-145 prostate
EKVX NSCLC = tested on: EKVX NSCLC
HCC-2998 colon = tested on: HCC-2998 colon
HCT-116 colon = tested on: HCT-116 colon
HCT-15 colon = tested on: HCT-15 colon
HL-60(TB) leukemia = tested on: HL-60(TB) leukemia
HOP-62 NSCLC = tested on: HOP-62 NSCLC
HOP-92 NSCLC = tested on: HOP-92 NSCLC
HS 578T breast = tested on: HS 578T breast
IGROV1 ovarian = tested on: IGROV1 ovarian
K-562 leukemia = tested on: K-562 leukemia
KM12 colon = tested on: KM12 colon
LOX IMVI melanoma = tested on: LOX IMVI melanoma
M14 melanoma = tested on: M14 melanoma
MALME-3M melanoma = tested on: MALME-3M melanoma
MCF7 breast = tested on: MCF7 breast
MDA-MB-231 breast = tested on: MDA-MB-231 breast
MDA-MB-435 = tested on: MDA-MB-435
MDA-N = tested on: MDA-N
MOLT-4 leukemia = tested on: MOLT-4 leukemia
NCI-H226 lung = tested on: NCI-H226 lung
NCI-H23 lung = tested on: NCI-H23 lung
NCI-H460 lung = tested on: NCI-H460 lung
NCI-H522 lung = tested on: NCI-H522 lung
NCI/ADR-RES ovarian = tested on: NCI/ADR-RES ovarian
OVCAR-3 ovarian = tested on: OVCAR-3 ovarian
OVCAR-4 ovarian = tested on: OVCAR-4 ovarian
OVCAR-5 ovarian = tested on: OVCAR-5 ovarian
OVCAR-8 ovarian = tested on: OVCAR-8 ovarian
PC-3 prostate = tested on: PC-3 prostate
RPMI-8226 leukemia = tested on: RPMI-8226 leukemia
SF-268 CNS = tested on: SF-268 CNS
SF-295 CNS = tested on: SF-295 CNS
SK-MEL-2 melanoma = tested on: SK-MEL-2 melanoma
SK-MEL-28 melanoma = tested on: SK-MEL-28 melanoma
SK-MEL-5 melanoma = tested on: SK-MEL-5 melanoma
SK-OV-3 ovarian = tested on: SK-OV-3 ovarian
SN12C renal = tested on: SN12C renal
SNB-19 CNS = tested on: SNB-19 CNS
SNB-75 CNS = tested on: SNB-75 CNS
SR leukemia = tested on: SR leukemia
SW-620 colon = tested on: SW-620 colon
T-47D breast = tested on: T-47D breast
TK-10 renal = tested on: TK-10 renal
U251 CNS = tested on: U251 CNS
UACC-257 melanoma = tested on: UACC-257 melanoma
UACC-62 melanoma = tested on: UACC-62 melanoma
UO-31 renal = tested on: UO-31 renal

CCOC(=O)CCc1cccc2c1oc1c(CCNC(=O)OCC3c4ccccc4-c4ccccc43)cccc12
TGI (786-0 renal): > 100 µM | TGI (A498 renal): > 100 µM | TGI (A549 NSCLC): > 100 µM | TGI (ACHN renal): > 100 µM | TGI (BT-549 breast): 68.4 µM | TGI (CAKI-1 renal): 45.4 µM | TGI (CCRF-CEM leukemia): > 100 µM | TGI (COLO 205 colon): > 100 µM | TGI (DU-145 prostate): > 100 µM | TGI (EKVX NSCLC): > 100 µM | TGI (HCC-2998 colon): > 100 µM | TGI (HCT-116 colon): > 100 µM | TGI (HCT-15 colon): > 100 µM | TGI (HL-60(TB) leukemia): > 100 µM | TGI (HOP-62 NSCLC): 52.3 µM | TGI (HOP-92 NSCLC): 85.6 µM | TGI (HS 578T breast): 16.5 µM | TGI (IGROV1 ovarian): > 100 µM | TGI (K-562 leukemia): > 100 µM | TGI (KM12 colon): > 100 µM | TGI (LOX IMVI melanoma): > 100 µM | TGI (M14 melanoma): > 100 µM | TGI (MALME-3M melanoma): 58.4 µM | TGI (MCF7 breast): > 100 µM | TGI (MDA-MB-231 breast): > 100 µM | TGI (MDA-MB-435): > 100 µM | TGI (MDA-N): > 100 µM | TGI (MOLT-4 leukemia): > 100 µM | TGI (NCI-H226 lung): > 100 µM | TGI (NCI-H23 lung): > 100 µM | TGI (NCI-H460 lung): > 100 µM | TGI (NCI-H522 lung): > 100 µM | TGI (NCI/ADR-RES ovarian): > 100 µM | TGI (OVCAR-3 ovarian): > 100 µM | TGI (OVCAR-4 ovarian): > 100 µM | TGI (OVCAR-5 ovarian): > 100 µM | TGI (OVCAR-8 ovarian): > 100 µM | TGI (PC-3 prostate): > 100 µM | TGI (RPMI-8226 leukemia): > 100 µM | TGI (SF-268 CNS): 70.3 µM | TGI (SF-295 CNS): > 100 µM | TGI (SK-MEL-2 melanoma): > 100 µM | TGI (SK-MEL-28 melanoma): > 100 µM | TGI (SK-MEL-5 melanoma): > 100 µM | TGI (SK-OV-3 ovarian): > 100 µM | TGI (SN12C renal): > 100 µM | TGI (SNB-19 CNS): 70.6 µM | TGI (SNB-75 CNS): 42.1 µM | TGI (SR leukemia): > 100 µM | TGI (SW-620 colon): > 100 µM | TGI (T-47D breast): 81.1 µM | TGI (TK-10 renal): > 100 µM | TGI (U251 CNS): > 100 µM | TGI (UACC-257 melanoma): > 100 µM | TGI (UACC-62 melanoma): 63.6 µM | TGI (UO-31 renal): > 100 µM
